# Test results from patent US20240294542A1, “NLRP3 INFLAMMASOME INHIBITOR AND APPLICATION THEREOF” (TransThera Sciences (Nanjing), Inc., priority 2021, published 2024).
# Tested on: NLRP3 inflammasomes
# Test: Inhibitory activity against NLRP3 inflammasome in THP-1 cells (LPS/nigericin stimulation, IL-1β ELISA)
# Type: cell-based
# Settings: PMA-differentiated THP-1 cells; LPS 500 ng/mL 3 h, compound 1 h, nigericin 10 μg/mL 30 min; human IL-1β in supernatant by Elisa; read-out: IC50 (nM), inhibitory activities against NLRP3 in THP-1 cells
# Protocol: Test Samples: The compounds of the present invention prepared according to exemplary methods.
# THP-1 is Immortalized Human Macrophage Cell Line
# • Test instrument: microplate reader (made from PE)
# • 1. […] Culture plate coating: 100 μL polylysine solution was added into a 96-well cell culture plate, and the reaction was carried out at 37° C. for 30 min. The solution was discarded, and PBS was washed twice for later use. • 3. […] The resulting mixture was uniformly mixed, and finally diluted by 1:1000 times, and the cells were placed in a carbon dioxide cell incubator at 37° C. and cultured for 1 h. • c. Nigericin was added to each well at a final concentration of 10 μg/mL, and the plate was placed in a carbon dioxide cell incubator at 37° C. and cultured for 30 min. • d. The media in wells were transferred to a new culture plate, and then the plate was centrifuged at 3000 rpm for 5 min. Then the supernatant was transferred to a new 96-well plate. • e. The collected cell culture supernatant samples were tested for the content of human IL-1β by using a commercial Elisa kit, as specified in the instructions.
row,SMILES,IC50
1,"COc1ccc(-c2nnc(N[C@@H]3CCCN(C)C3)c3ccccc23)c(O)c1 [Compound 74, (R)-5-methoxy-2-(4-((1-methylpiperidin-3-yl)amino)phthalazin-1-yl)phenol]",6 nM
2,"CN1CCC[C@@H](Nc2nnc(-c3ccc(C#N)cc3O)c3ccsc23)C1 [Compound 77, (R)-3-hydroxy-4-(7-((1-methylpiperidin-3-yl)amino)thieno[2,3-d]pyridazin-4-yl)benzonitrile]",2 nM
3,"CN1CCC[C@@H](Nc2nnc(-c3ccc(C#N)cc3O)c3sccc23)C1 [Compound 78, (R)-3-hydroxy-4-(4-((1-methylpiperidin-3-yl)amino)thieno[2,3-d]pyridazin-7-yl)benzonitrile]",2 nM
4,"CN1CCC[C@@H](Nc2nnc(-c3ccc(C#N)cc3O)c3ccncc23)C1 [Compound 79, (R)-3-hydroxy-4-(4-((1-methylpiperidin-3-yl)amino)pyrido[3,4-d]pyridazin-1-yl)benzonitrile]",13 nM
5,"CN1CCC[C@@H](Nc2nnc(-c3ccc(C(F)F)cc3O)c3ccccc23)C1 [Compound 87, (R)-5-(difluoromethyl)-2-(4-((1-methylpiperidin-3-yl)amino)phthalazin-1-yl)phenol]",2 nM
6,"Cc1ccc2c(-c3ccc(Br)cc3O)nnc(N[C@@H]3CCCN(C)C3)c2c1 [Compound 88, (R)-5-bromo-2-(6-methyl-4-((1-methylpiperidin-3-yl)amino)phthalazin-1-yl)phenol]",1 nM
7,"CN1CCC[C@@H](Nc2nnc(-c3ccc(C4CC4)cc3O)c3ccc(C#N)cc23)C1 [Compound 89, (R)-1-(4-cyclopropyl-2-hydroxyphenyl)-4-((1-methylpiperidin-3-yl)amino)phthalazine-6-carbonitrile]",7 nM
8,"Cc1ccc2c(-c3ccc(C4CC4)cc3O)nnc(N[C@@H]3CCCN(C)C3)c2c1 [Compound 90, (R)-5-cyclopropyl-2-(6-methyl-4-((1-methylpiperidin-3-yl)amino)phthalazin-1-yl)phenol]",7 nM
9,"CN1CCC[C@@H](Nc2nnc(-c3ccc(C4CC4)cc3O)c3ccncc23)C1 [Compound 95, (R)-5-cyclopropyl-2-(4-((1-methylpiperidin-3-yl)amino)pyrido[3,4-d]pyridazin-1-yl)phenol]",1 nM
10,"CN1CCC[C@@H](Nc2nnc(-c3ccc(Cl)cc3O)c3ccccc23)C1 [Compound 101, (R)-5-chloro-2-(4-((1-methylpiperidin-3-yl)amino)phthalazin-1-yl)phenol]",5 nM
11,"N#Cc1ccc(-c2nnc(N[C@@H]3CCCN(C4CC4)C3)c3ccccc23)c(O)c1 [Compound 111, (R)-4-(4-((1-cyclopropylpiperidin-3-yl)amino)phthalazin-1-yl)-3-hydroxybenzonitrile]",4 nM
12,"N#Cc1ccc(-c2nnc(N[C@@H]3CCCOC3)c3ccccc23)c(O)c1 [Compound 112, (R)-3-hydroxy-4-(4-((tetrahydro-2H-pyran-3-yl)amino)phthalazin-1-yl)benzonitrile]",16 nM
13,"C[C@]1(O)C[C@@H](Nc2nnc(-c3ccc(C#N)cc3O)c3ccccc23)C1 [Compound 116, 3-hydroxy-4-(4-(((cis)-3-hydroxy-3-methylcyclobutyl)amino)phthalazin-1-yl)benzonitrile]",21 nM
14,"Cc1cc(C#N)ccc1-c1nnc(N[C@@H]2CCCN(C)C2)c2ccccc12 [Compound 118, (R)-3-methyl-4-(4-((1-methylpiperidin-3-yl)amino)phthalazin-1-yl)benzonitrile]",23 nM
15,"CN1C[C@H](F)C[C@@H](Nc2nnc(-c3ccc(C#N)cc3O)c3ccccc23)C1 [Compound 123, 4-(4-(((3R,5R)-5-fluoro-1-methylpiperidin-3-yl)amino)phthalazin-1-yl)-3-hydroxybenzonitrile]",6 nM
16,"N#Cc1ccc(-c2nnc(N[C@@H]3CCCN(C4CCOCC4)C3)c3ccccc23)c(O)c1 [Compound 124, (R)-3-hydroxy-4-(4-((1-(tetrahydro-2H-pyran-4-yl)piperidin-3-yl)amino)phthalazin-1-yl)benzonitrile]",5 nM
17,"CC(C)N1CCC[C@@H](Nc2nnc(-c3ccc(C#N)cc3O)c3ccccc23)C1 [Compound 125, (R)-3-hydroxy-4-(4-((1-isopropylpiperidin-3-yl)amino)phthalazin-1-yl)benzonitrile]",3 nM
18,CC(C)(O)CN1CCC[C@@H](Nc2nnc(-c3ccc(C#N)cc3O)c3ccccc23)C1 [Compound 126],5 nM
19,"N#Cc1ccc(-c2nnc(N[C@@H]3CCCN(CCO)C3)c3ccccc23)c(O)c1 [Compound 127, (R)-3-hydroxy-4-(4-((1-(2-hydroxyethyl)piperidin-3-yl)amino)phthalazin-1-yl)benzonitrile]",4 nM
20,"C[C@]1(O)C[C@@H](Nc2nnc(-c3ccc(C(F)(F)F)cc3O)c3ccccc23)C1 [Compound 129, 2-(4-(((cis)-3-hydroxy-3-methylcyclobutyl)amino)phthalazin-1-yl)-5-(trifluoromethyl)phenol]",4 nM
